Results: patent US20250313546A1, “NUCLEIC ACID BINDERS” (UNIVERSITY OF STRATHCLYDE, priority 2022, published 2025)
In brackets after ≈: the same amount, converted by molar mass.

Legend:
[1] = test system: Staphylococcus aureus (ATCC 43300); assay: Antibacterial MIC, broth microdilution (CLSI); format: cell-based; conditions: for MIC80: Staphylococcus aureus, ATCC43300, read-out: MIC80 S. aureus
[2] = test system: Enterococcus faecalis (ATCC 51299); assay: Antibacterial MIC, broth microdilution (CLSI); format: cell-based; conditions: for MIC80: Enterococcus faecalis, ATCC51299, read-out: MIC80 E. faecalis
[3] = test system: Escherichia coli (ATCC 25922); assay: Antibacterial MIC, broth microdilution (CLSI); format: cell-based; conditions: Escherichia coli, ATCC25922; read-out: MIC80 E. coli
T. vaginalis = assay: Trichomonas resorufin assay; format: cell-based; conditions: for T. vaginalis Selectivity Indices, Group / T. vaginalis Selectivity Index (SI): SI, IC50 (μM)/IC50 (μM), HEK293 cytotoxicity; for IC50: Trichomonas vaginalis, read-out: IC50 T. vaginalis; for T. vaginalis Selectivity Index (SI): numeric value
[4] = test system: Human rhinovirus (HRV-14); assay: Viral ToxGlo assay, Hela Ohio cells; format: cell-based; conditions: M-HeLa, 72 h
[5] = test system: human respiratory syncytial virus (RSV A2); assay: Viral ToxGlo assay, Hep-2 cells; format: cell-based; conditions: 72 h
Influenza (H1N1) = assay: Accelerated Viral Neuraminidase Inhibition Assay (AVINA), A549 cells; format: cell-based; conditions: Influenza A virus, 72 h
[6] = test system: Genomic double stranded DNA (salmon); assay: Fluorescence intercalator displacement (FID) assay, SYBR-safe probe; conditions: 20 μM compound, 30° C., lower % = stronger binding
Procedure, shortened: (§1)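 Compound at 20 μM mixed with 3.76 ng/mL polyAU dsRNA or salmon genomic dsDNA and 12500-fold diluted SybrSafe in 1 mM phosphate buffer pH 7.4, then heated to 30 °C and fluorescence read. Reduction is expressed as normalised %, with nucleic acid plus probe as maximum and probe alone as minimum.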

[7] = test system: PolyAU double stranded RNA; assay: as above; conditions: 20 μM compound, 30° C., lower % = stronger binding
Procedure, shortened: as §1

C. neoformans (F10025) = conditions: Cryptococcus neoformans, read-out: MIC99 C. neoformans
Method: (§2) The Minimum Inhibitory Concentration (MIC, at 99% inhibition) of the compounds was determined using the broth microdilution method as recommended by EUCAST (EUCAST Definitive Document E.DEF 9.3.2, Method for the determination of broth dilution minimum inhibitory concentrations of antifungal agents for conidia forming moulds and EUCAST Definitive Document E.DEF 7.3.2 Method for the determination of broth dilution minimum inhibitory concentrations of antifungal agents for yeasts).

[8] = test system: A. fumigatus A1160 (MFIG001); conditions: Aspergillus fumigatus, read-out: MIC99 A. fumigatus A1160
Method: as §2

[9] = test system: Candida glabrata (ACPF3309); conditions: Nakaseomyces glabratus, read-out: MIC99 Candida glabrata
[10] = test system: SARS-CoV-2 (hCoV-19/Australia/VIC01/2020); assay: SARS-CoV-2 microplaque inhibition assay in Vero-E6 cells; format: cell-based; conditions: Severe acute respiratory syndrome coronavirus 2, Vero C1008; plaque inhibition, Vero-E6 cells; read-out: IC50 SARS-CoV-2
[11] = test system: Rhizopus arrhizus (NEQAS12.35321); conditions: read-out: MIC99 Rhizopus arrhizus
Method: as §2

[12] = SI, IC50 (μM)/MIC80 (μM), HEK293 cytotoxicity, Alkyl Amidines and NH Pyrroles

COCCOCCOCCNC(=O)c1cc(NC(=O)c2cc(NC(=O)c3ccc(/C=C/c4cnc5ccccc5c4)cc3)cn2C)cn1C [IVa8, (E)-N-(2-(2-(2-methoxyethoxy)ethoxy)ethyl)-1-methyl-4-(1-methyl-4-(4-(2-(quinolin-3-yl)vinyl)benzamido)-1H-pyrrole-2-carboxamido)-1H-pyrrole-2-carboxamide]
MIC80 [1]: 5 to 25 µM (≈ 3.32 to 16.6 µg/mL) | MIC80 [2]: 5 to 25 µM (≈ 3.32 to 16.6 µg/mL) | MIC80 [3]: > 100 µM | T. vaginalis Selectivity Indices, Group (T. vaginalis; Amides): B (Group B: 0.25 < SI <= 0.5) | IC50 (T. vaginalis): 5 to 50 µM | inhibition at 20 µM [4]: 25 to 50% | inhibition at 20 µM [5]: 10 to 25% | inhibition at 20 µM (Influenza (H1N1)): 10 to 25% | % Normalised Fluorescence with gDNA [6]: 70% | % Normalised Fluorescence with polyAU RNA [7]: 94%

CC(C)=CCC/C(C)=C/CNC(=O)c1cc(NC(=O)c2cc(NC(=O)c3ccc(/C=C/c4cnc5ccccc5c4)cc3)cn2C)cn1C [IVa10, N—((E)-3,7-dimethylocta-2,6-dien-1-yl)-1-methyl-4-(1-methyl-4-(4-((E)-2-(quinolin-3-yl)vinyl)benzamido)-1H-pyrrole-2-carboxamido)-1H-pyrrole-2-carboxamide]
MIC80 [1]: 5 to 25 µM (≈ 3.27 to 16.4 µg/mL) | MIC80 [2]: 25 to 100 µM (≈ 16.4 to 65.5 µg/mL) | MIC80 [3]: > 100 µM | IC50 (T. vaginalis): 5 to 50 µM | inhibition at 20 µM [4]: > 50% | inhibition at 20 µM [5]: > 50% | inhibition at 20 µM (Influenza (H1N1)): 10 to 25% | MIC99 (C. neoformans (F10025)): > 50 µg/mL | MIC99 [8]: 25 to 50 µg/mL (≈ 38.2 to 76.4 µM) | MIC99 [9]: 5 to 25 µg/mL (≈ 7.64 to 38.2 µM)

CC(C)/N=C(\N)CCNC(=O)c1cc(NC(=O)c2cc(NC(=O)c3ccc(/C=C/c4ccc5nonc5c4)cc3)cn2C)cn1C [Ia13, N—((Z)-3-amino-3-(isopropylimino)propyl)-4-(4-(4-((E)-2-(benzo[c][1,2,5]oxadiazol-5-yl)vinyl)benzamido)-1-methyl-1H-pyrrole-2-carboxamido)-1-methyl-1H-pyrrole-2-carboxamide]
S. aureus Selectivity Indices, Group [1, 12]: C (Group C: 5 < SI <= 10) | MIC80 [1]: 5 to 25 µM (≈ 3.11 to 15.5 µg/mL) | MIC80 [2]: < 5 µM | E. faecalis Selectivity Indices, Group [2, 12]: D (D: SI > 10) | E. faecalis Selectivity Index (SI) ([2]; SI, IC50 (μM)/MIC80 (μM), HEK293 cytotoxicity, numeric value): 12 | MIC80 [3]: > 100 µM | T. vaginalis Selectivity Indices, Group (T. vaginalis; Alkyl Amidines and NH Pyrroles): C (Group C: 16 < SI <= 32) | T. vaginalis Selectivity Index (SI) (T. vaginalis): 17 | IC50 (T. vaginalis): 1 to 5 µM | IC50 [10]: 8 to 32 µM | inhibition at 20 µM [4]: 25 to 50% | inhibition at 20 µM [5]: > 50% | inhibition at 20 µM (Influenza (H1N1)): > 50% | % Normalised Fluorescence with gDNA [6]: 2% | % Normalised Fluorescence with polyAU RNA [7]: 3% | MIC99 (C. neoformans (F10025)): 5 to 25 µg/mL (≈ 8.04 to 40.2 µM) | MIC99 [8]: > 50 µg/mL | MIC99 [9]: 25 to 50 µg/mL (≈ 40.2 to 80.4 µM)

CC(C)NC(=N)CCNC(=O)c1cc(NC(=O)c2cc(NC(=O)c3ccc(/C=C/c4cnc5ccccc5c4)cc3)cn2C)cn1C [Ia21, (E)-N-(3-imino-3-(isopropylamino)propyl)-1-methyl-4-(1-methyl-4-(4-(2-(quinolin-3-yl)vinyl)benzamido)-1H-pyrrole-2-carboxamido)-1H-pyrrole-2-carboxamide]
MIC80 [1]: < 5 µM | MIC80 [2]: < 5 µM | MIC80 [3]: > 100 µM | T. vaginalis Selectivity Indices, Group (T. vaginalis; Alkyl Amidines and NH Pyrroles): D (Group D: SI > 32) | T. vaginalis Selectivity Index (SI) (T. vaginalis): 41 | IC50 (T. vaginalis): < 1 µM | inhibition at 20 µM [4]: > 50% | inhibition at 20 µM [5]: 25 to 50% | inhibition at 20 µM (Influenza (H1N1)): 25 to 50% | % Normalised Fluorescence with gDNA [6]: 3% | % Normalised Fluorescence with polyAU RNA [7]: 2% | MIC99 (C. neoformans (F10025)): > 50 µg/mL | MIC99 [8]: 5 to 25 µg/mL (≈ 7.93 to 39.6 µM) | MIC99 [11]: 5 to 25 µg/mL (≈ 7.93 to 39.6 µM) | MIC99 (Candida auris (H.17.157); Candidozyma auris, read-out: MIC99 Candida auris): 25 to 50 µg/mL (≈ 39.6 to 79.3 µM) | C. auris Selectivity Indices, Group (Candida auris (H.17.157); SI, IC50 (μM)/MIC99 (μg/mL), HEK293 cytotoxicity, Alkyl Amidines and NH Pyrroles): B (Group B: 0.4 < SI <= 1) | MIC99 [9]: < 5 µg/mL
